Results as given in patent US6962926B2, “Antagonist of MCP-1 function, and compositions and methods of use thereof” (Telik, Inc., priority 2001, dated 2005).

Test system: Experimental Allergic Encephalomyelitis (EAE)
Assay: Experimental Allergic Encephalomyelitis (EAE) model of multiple sclerosis
Type: in vivo
Settings: mice, MOG35-55-induced EAE, 30 mg/Kg twice daily for 35 days
Method: EAE was induced in two groups, each of 10 mice, by subcutaneous injection into the flank of 150 μg of the encephalitogenic peptide MOG35-55 ([…]; Auspep, Melbourne, Australia) emulsified in complete Freund's adjuvant (Difco, Detroit, U.S.A.), supplemented with 4 mg/mL of Mycobacterium tuberculosis, followed by intravenous injection of 350 ng of pertussis vaccine (List Biological Laboratories, Campbell, U.S.A.), with the pertussis vaccine injection repeated after 48 hours.
Compound 1 was dissolved in 3% aqueous Tween 80 at 4mg/mL and stored at 4° C. Starting on the day of immunization with MOG35-55, the mice were treated twice daily with 30 mg/Kg of compound 1 or an equal volume of water for the 35 day duration of the experiment.
The mice were monitored daily and neurological impairment was quantified on an arbitrary scale: 0, no detectable impairment; 1, flaccid tail; 2, hind limb weakness; 3, hind limb paralysis; 4, hind limb paralysis and ascending paralysis; 5, moribund or dead.
At the end of the experiment, the mice were killed and hematoxylin and eosin stained sections of brain and spinal cord were scored blindly by two independent investigators using the following scale: 0, no inflammation; 1, few very small cellular infiltrate in the perivascular areas and meninges; 2, mild cellular infiltrate; 3, moderate cellular infiltrate; 4, severe cellular infiltrate; 5, very large and extensive cellular infiltrate.

[1] = neurological impairment scale 0-5

Cc1nn(C)c2nc(OCCN3CCCC3)c(C(=O)NC(=O)Nc3cccc(OC(C)C)c3)cc12.Cl [Compound 1, 1-{1,3-dimethyl-6-[2-(pyrrolidin-1-yl)ethoxy]-1H-pyrazolo[3,4-b]pyridine-5-carbonyl}-3-(3-isopropoxyphenyl)urea hydrochloride]
Mean onset: 17.2 days | EAE incidence (affected/total): 5/10 | Mean cumulative score [1]: 7.25 | Mean maximum score [1]: 1.4
